Test [1] deals with ion channels associated with glutamate receptors. Kind of test: Glutamate-induced uptake of 45Ca into rat brain synaptosomes (calcium-blocking properties). It counts as biochemical. The conditions noted are these: glutamate-induced 45Ca uptake, K(43/21); compound 5 μM; 5 min at 30° C. The procedure:
Evaluation of the calcium-blocking properties of the compounds was conducted with P2-fraction of synaptosomes, which were isolated from the brain of newborn (8-11 days) rats according to the protocol described in [Bachurin et al. Neuroprotective and cognition enhancing properties of MK-801 flexible analogs. Structure-activity relationships.//Ann. N.Y. Acad. Sci., 2001, v. 939, pp. 219-235]. In this test, the ability of the compounds to inhibit a specific uptake of calcium ions via ion channels associated with glutamate receptors was determined.
Synaptosomes were placed into the incubation buffer A (132 mM NaCl, 5 mM KCl, 5 mM HEPES) and were kept at 0° C. during the entire experiment. Aliquots of synaptosomes (50 μl) were placed in the media A, containing investigated compounds and a preparation of the radiolabeled calcium, ^45Ca. The calcium uptake was stimulated by the introduction into the media of the 20 μl of the 10 mM solution of glutamate. After a 5 min incubation at 30° C. the reaction was interrupted by a filtration through GF/B filters, which were then triple washed with the cold buffer B (145 mM KCl, 10 mM tris, 5 mM trilon B). Then, filters were subjects for the detection of the radiolabeled calcium. The measurement was conducted using a scintillation counter ‘SL-4000 Intertechnic”. The initial screening was conducted with a concentration of each compound of 5 μM. A specific calcium uptake was calculated using the following equation
where: • Ca1 is a calcium uptake in a control experiment (no glutamate or test compound added); • Ca2 is a calcium uptake in the presence of glutamate only (Glutamate Induced Calcium Uptake—GICU); • Ca3 is a calcium uptake in the presence of a test compound only (no glutamate added); Ca4 is a calcium uptake in the presence of both glutamate and a test compound.

Test [2] concerns C57/B female mice. Kind of test: Vision disturbances (development of age-related cataract) depending on age and Dimebon consumption. The test is classed as in vivo. The conditions noted are these: for amount of animals that have cataract: 3 mg/kg daily in water. The procedure:
(§1) Experiments were conducted with C57/B female mice, starting from their age of 12 months. Mice were kept on cells, 10 animals per a cell. Both control and experimental group included 50 animals in each group. […] The day-night cycle was 12 hours.
(§2) Prior to the experiment, daily and weekly water consumption by the animals in one cell was measured. Dimebon was added in water in such amount that each animal would consume 3 mg/kg of Dimebon per day in average. Bottles with water containing Dimebon were replaced every 7 days. Animals in the control group were receiving pure water.
(§3) Prior to the experiment, all the animals were weighed, and an average weight was determined in every group, every cell, as well as the weight of all animals in every cell. The condition of skin, hair, and eyes were also determined by visual inspection. […] Evaluation of all these parameters was conducted on a monthly basis.
(§4) Statistics was calculated using Student T-test and ‘ Chi-squared’ criteria.

The subject of test [3] is C57/B female mice. The experiment in a line: Lifespan: amount of alive animals depending on age, Dimebon in drinking water. The test is classed as in vivo. The conditions noted are these: for Amount of alive animals: 3 mg/kg daily in water. The procedure:
as §1, §2, §3, §4
Evaluation of the parameter of the length of life was conducted employing methods used in demography. This parameter was a probability of death in every age group.

The nature of test [4]: Dynamics in weight of animals depending on age and Dimebon consumption. It counts as in vivo, mice. Particulars: for average weight of animals: 3 mg/kg daily in water. The procedure: as §1, §2, §3, §4
Test [5] relates to C57/B female mice. The experiment in a line: Disturbances in skin-hair integument (alopecia) depending on age and Dimebon consumption. It counts as in vivo. The conditions noted are these: for % of animals that have alopecia: 3 mg/kg daily in water. The procedure: as §1, §2, §3, §4

In the case of “2-dimethyl-2,3,4,5-tetrahydro-1H-pyrido(4,3-b)indol methyl iodide [Compound 8]”, in test [1], the “% Ca to control” value is given as 18.0 ± 2.5%.

For “2-methyl-5-(2-(6-methyl-3-pyridyl)-ethyl)-2,3,4,5-tetrahydro-1H-pyrido(4,3-b)indol sesquisulfate monohydrate [Compound 5]”, the “% Ca to control” value in test [1] stood at 33.5 ± 1.5%.

On to `CCN1CCc2[nH]c3ccccc3c2C1` [Compound 2, 2-ethyl-2,3,4,5-tetrahydro-1H-pyrido(4,3-b)indol], for which the “% Ca to control” value in test [1] was 36.5 ± 0.5%.

Turning to `c1ccc(CN2CCc3[nH]c4ccccc4c3C2)cc1` [Compound 3, 2-benzyl-2,3,4,5-tetrahydro-1H-pyrido(4,3-b)indol], in test [1], the “% Ca to control” value was determined as 28.5 ± 2.5%.

Consider `Cc1ccc2c(c1)c1c(n2Cc2ccccc2)CCN(C)C1.Cl.Cl` [Compound 4, 2,8-dimethyl-5-benzyl-2,3,4,5-tetrahydro-1H-pyrido(4,3-b)indol dihydrochloride], for which the “% Ca to control” value in test [1] is on record as 22.5 ± 3.5%.

`Cc1ccc2c(c1)c1c(n2CCc2ccc(C)nc2)CCN(C)C1.Cl.Cl` [Compound 6, 2,8-dimethyl-5-(2-(6-methyl-3-pyridyl)-ethyl)-2,3,4,5-tetrahydro-1H-pyrido(4,3-b)indol dihydrochloride]: the “amount of animals that had cataract versus control group” value in test [2] (3 mg/kg daily, P<0.05 for 13 to 20 months old mice) is “significantly less”. The “amount of animals that have cataract” value in test [2] (age 12 months (start)) was 0%; in test [2] (age 13 months) it was 0%; in test [2] (age 14 months), 0%; in test [2] (age 15 months), 4%; in test [2] (age 16 months), 6%; in test [2] (age 17 months) it was 6%. Also, the “amount of animals that have cataract” value in test [2] (age 18 months) was 10%; in test [2] (age 19 months), 13%; in test [2] (age 20 months) it was 17%; in test [2] (age 21 months), 25%. In addition, the “Amount of alive animals” value in test [3] (age 12 months (start), 50 animals per group) was determined as 50; in test [3] (age 13 months) it was 50; in test [3] (age 14 months), 49; in test [3] (age 15 months), 48; in test [3] (age 16 months), 47; in test [3] (age 17 months) it was 47. Also, the “Amount of alive animals” value came out at 42 in test [3] (age 18 months); 39 in test [3] (age 19 months); 35 in test [3] (age 20 months); 32 in test [3] (age 21 months); 28 in test [3] (age 22 months); 25 in test [3] (age 23 months). The “Amount of alive animals” value is listed as 18 in test [3] (age 24 months) and 11 in test [3] (age 25 months). Also, in test [3] (all age groups, 3 mg/kg daily, significant (P<0.05) at 20-23 months), the “probability of death versus control group” value is on record as “lower”. The “% Ca to control” value in test [1] worked out at 48.5 ± 2.5%. Also, the age-related weight depletion result in test [4] (3 mg/kg daily, depletion only in 23 month old animals, variation versus control not significant (P>0.05)) was “No weight depletion was observed”. The “average weight of animals” value was 24.7 g in test [4] (age 12 months (start)); 24.7 g in test [4] (age 13 months); 24.7 g in test [4] (age 14 months); 26 g in test [4] (age 15 months); 25.5 g in test [4] (age 16 months); 24.7 g in test [4] (age 17 months). In addition, the “average weight of animals” value in test [4] (age 18 months) is listed as 25.5 g; in test [4] (age 19 months), 26 g; in test [4] (age 20 months), 26 g; in test [4] (age 21 months), 25.6 g; in test [4] (age 22 months), 25.1 g; in test [4] (age 23 months), 24.7 g. Further, the “average weight of animals” value is listed as 24 g in test [4] (age 24 months) and 23.7 g in test [4] (age 25 months). Moreover, the “% of animals that have alopecia” value in test [5] (age 12 months (start)) is recorded as 0%; in test [5] (age 13 months), 0%; in test [5] (age 14 months), 2%; in test [5] (age 15 months), 6%; in test [5] (age 16 months) it was 10%; in test [5] (age 17 months) it was 20%. Further, the “% of animals that have alopecia” value in test [5] (age 18 months) stood at 12%; in test [5] (age 19 months), 14%; in test [5] (age 20 months), 34%; in test [5] (age 21 months) it was 35%. For the same molecule, in test [5] (old animals fed Dimebon 3 mg/kg daily, alopecia difference 13th-21st month P<0.05), the “development of non-fatal pathologies, such as loss of vision and alopecia” value is “slowing of the development”.

As to `CN1CCc2[nH]c3ccccc3c2C1` [Compound 7, 2-methyl-2,3,4,5-tetrahydro-1H-pyrido(4,3-b)indol], the “% Ca to control” value in test [1] is listed as 35.5 ± 2.5%.

For the molecule `CN1CCc2[nH]c3ccc(Br)cc3c2C1.Cl` [Compound 9, 2-methyl-8-bromo-2,3,4,5-tetrahydro-1H-pyrido(4,3-b)indol hydrochloride], in test [1], the “% Ca to control” value was found to be 30.0 ± 3.5%.

For the origin of these results see patent US20080234310A1, “Methods and Compositions for Slowing Aging” (priority 2003, published 2008).
